# Target: T1, ALDH1a3 (Homo sapiens, UniProt P47895)
# T1 construct: lentiviral vectors containing either the vector backbone or full-length human Aldh1a3; expressed in transfected cells; host or cells: SUM159-M1a (A1) and SUM159 (A7) breast cancer cells, lentiviral pLex vector, puromycin selection
# T1 sequence (P47895 1-512): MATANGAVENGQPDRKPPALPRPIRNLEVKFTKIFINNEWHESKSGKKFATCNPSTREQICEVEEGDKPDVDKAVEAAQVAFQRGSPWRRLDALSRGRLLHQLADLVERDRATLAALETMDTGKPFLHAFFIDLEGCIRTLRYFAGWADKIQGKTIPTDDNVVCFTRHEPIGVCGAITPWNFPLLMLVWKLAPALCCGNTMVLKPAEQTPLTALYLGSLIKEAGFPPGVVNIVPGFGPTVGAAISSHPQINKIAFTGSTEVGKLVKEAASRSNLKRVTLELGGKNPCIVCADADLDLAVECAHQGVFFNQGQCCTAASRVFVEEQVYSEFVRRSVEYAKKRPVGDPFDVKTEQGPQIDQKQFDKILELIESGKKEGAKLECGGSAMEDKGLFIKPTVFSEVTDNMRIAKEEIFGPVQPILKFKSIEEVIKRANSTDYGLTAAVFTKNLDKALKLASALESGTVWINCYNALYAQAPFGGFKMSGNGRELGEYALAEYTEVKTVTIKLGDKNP
# Assay: ALDEFLUOR assay in SUM159-M1a-Aldh1a3 cells (flow cytometry)
# Type: cell-based
# Settings: for Percent of Cells Positive for ALDEFLUOR at 100 nM / inhibition at 0.1 µM: SUM159-M1a-Aldh1a3 cells, compound at 100 nM; for inhibition at 0.1 µM: read-out: Inhibitory Activity at 100 nM (%)
# Protocol: Cells were counted, centrifuged and resuspended at 1,000,000 cells/mL in ALDEFLUOR™ buffer (Stemcell Technologies). ALDEFLUOR™ substrate (Stemcell Technologies, 1:200) and test compound or 1 mM DEAB were added to cell suspension and incubated at 37° C. for 45 minutes with vortexing every 15 minutes. Cells were centrifuged and resuspended in ALDEFLUOR™ buffer with DAPI at 5 μg/mL. Samples were analyzed with the BD LSR2 flow cytometry platform. Gating was performed using DEAB as a negative control.
# Gating for background fluorescence was performed using 1 millimolar DEAB as a negative control.
# The [inh-min] threshold was set at the lower bound of two standard deviations of control samples, while the IC50 threshold was set at 50% of the average of control samples.
# High activity was gated at the 99th percentile of cells at a MBE1.5 concentration of 10 nanomolar. The [inh-min] threshold was set at the lower bound of two standard deviations of control samples.
# An ALDEFLUOR™ assay was also used to assess the relative activity of several compounds described herein against SUM159-M1a-Aldh1a3 cells. The activity of several compounds in the assay at a concentration of 100 nM is reported in Table 1, along with the chemical structure and compound name associated with each compound.
Structure (SMILES),Percent of Cells Positive for ALDEFLUOR at 100 nM [%],inhibition at 0.1 µM [%],inhibition of ALDH1a3 activity (FIG. 1A) (compounds at 100 nM),"relative potency, ALDEFLUOR activity (FIG. 12) (concentration of 10 nM, compared to DMSO or DEAB-treated cells)"
"O=C1CCc2cc(NC(=O)c3ccncc3F)c(F)cc2N1 [MBE3.5, 3-fluoro-N-(7-fluoro-2-oxo-1,2,3,4-tetrahydroquinolin-6-yl)isonicotinamide]",63,18,,
"Cc1ccc(C)c(CNc2ccc3c(c2)CCC(=O)N3)c1 [MBE2, 6-((2,5-dimethylbenzyl)amino)-3,4-dihydroquinolin-2(1H)-one]",,45,,
"Cc1ccccc1C(=O)Nc1ccc2c(c1)CCC(=O)N2 [MBE3.3, 2-methyl-N-(2-oxo-1,2,3,4-tetrahydroquinolin-6-yl)benzamide]",,42,,
"O=C1CCc2cc(NCc3ccc[nH]3)c(F)cc2N1 [MBE3.8, 6-(((1H-pyrrol-2-yl)methyl)amino)-7-fluoro-3,4-dihydroquinolin-2(1H)-one]",75,2,,
"Cc1ccc(C(=O)Nc2ccc3c(c2)CCC(=O)N3)c(C)c1 [MBE3.2, 2,4-dimethyl-N-(2-oxo-1,2,3,4-tetrahydroquinolin-6-yl)benzamide]",,3.3,,
"Cc1cncc(C(=O)Nc2cc3c(cc2F)NC(=O)CC3)c1 [MBE3.6, N-(7-fluoro-2-oxo-1,2,3,4-tetrahydroquinolin-6-yl)-5-methylnicotinamide]",55,29,,
"O=C1CCc2cc(NCc3ccccc3)ccc2N1 [MBE3.4, 6-(benzylamino)-3,4-dihydroquinolin-2(1H)-one]",,11,,
"Cc1ccc(C(=O)Nc2ccc3c(c2)CCC(=O)N3)cc1C [MBE3.1, 3,4-dimethyl-N-(2-oxo-1,2,3,4-tetrahydroquinolin-6-yl)benzamide]",,0.6,,
"CCc1cnccc1C(=O)Nc1ccc2c(c1)CCC(=O)N2 [MBE1.6, 3-ethyl-N-(2-oxo-1,2,3,4-tetrahydroquinolin-6-yl)isonicotinamide]",13,83,high-affinity compounds for the inhibition of ALDH1a3 activity,
"CC(C)Cc1ccccc1C(=O)Nc1cc2c(cc1F)NC(=O)CC2 [MBE1.5C, N-(7-fluoro-2-oxo-1,2,3,4-tetrahydroquinolin-6-yl)-2-isobutylbenzamide]",,,,"nearly twice as potent as MBE 1.5, MBE 1.5A or MBE 1.5D"
"O=C1CCc2cc(NC(=O)c3ccncc3)c(F)cc2N1 [MBE1.2, N-(7-fluoro-2-oxo-1,2,3,4-tetrahydroquinolin-6-yl)isonicotinamide]",,8,,

# Source: patent publication US12162855B2, “Tetrahydroquinolino derivatives for the treatment of metastatic and chemoresistant cancers” (THE TRUSTEES OF PRINCETON UNIVERSITY, priority 2018, dated 2024)
